Source: patent US20100216798A1, “FUSED HETEROCYCLES AS LCK INHIBITORS” (ASTELLAS PHARMA INC, priority 2005, published 2010)

Target: T1, Purified Lck (Upstate) (Homo sapiens, UniProt P06239)
T1 construct: purchased Upstate
Test: Assay for Lck Activity
Type: biochemical
Conditions: Src substrate peptide-coated plate ELISA, 0.05 mM ATP, 30° C. for 60 minutes, anti-phosphotyrosine HRP detection
Protocol: The Src substrate peptide (Upstate) was coated onto 96-well Maxisorp plates (Nunc). Plates were sealed and incubated at 4° C., for 16 hours, washed three times with TBST (20 mM Tris-HCl pH 7.5, 150 mM NaCl and 0.1% Tween-20). The plates were blocked with 0.1% BSA and washed three times with TBST. Purified Lck (Upstate) was incubated in 100 mM Tris-HCl pH 7.5, 125 mM MgCl2, 25 mM MnCl2, 2 mM EGTA, 0.25 mM Sodium Vanadate, 2 mM DTT, 0.05 mM ATP with or without inhibitors at 30° C. for 60 minutes and washed with TBST three times. For quantification of phosphorylated tyrosines, plates were incubated with anti-phosphotyrosine, HRP conjugate (4G10, Upstate) for 1 hour at ambient temperature and washed three times with TBST. Detection was carried out using a color reagent, TMB (KPL). Ten minute after TMB addition the OD at 450 nm was measured.

T1 sequence (P06239 whole entry, species assumed): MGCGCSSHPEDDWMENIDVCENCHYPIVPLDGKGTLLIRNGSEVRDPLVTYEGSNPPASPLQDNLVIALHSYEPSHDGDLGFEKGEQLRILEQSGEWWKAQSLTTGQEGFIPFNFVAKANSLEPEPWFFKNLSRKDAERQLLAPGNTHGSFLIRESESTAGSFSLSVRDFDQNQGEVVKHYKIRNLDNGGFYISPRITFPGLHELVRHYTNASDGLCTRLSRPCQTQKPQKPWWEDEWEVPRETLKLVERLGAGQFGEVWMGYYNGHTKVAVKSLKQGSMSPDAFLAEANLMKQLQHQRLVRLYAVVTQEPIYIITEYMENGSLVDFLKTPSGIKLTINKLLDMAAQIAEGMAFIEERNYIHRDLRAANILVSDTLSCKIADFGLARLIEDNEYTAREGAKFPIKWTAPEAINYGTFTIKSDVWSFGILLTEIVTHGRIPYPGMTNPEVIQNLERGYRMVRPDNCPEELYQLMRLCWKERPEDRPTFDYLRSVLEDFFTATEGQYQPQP

Row | Compound | IC50
1 | c1cc(-c2cnc3ccc(NC4CCOCC4)nn23)ccn1 [Example 16, 3-(4-pyridinyl)-N-(tetrahydro-2H-pyran-4-yl)imidazo[1,2-b]pyridazin-6-amine] | 460 nM
2 | c1ccc(Nc2ccc3ncc(-c4ccncc4)n3n2)cc1 [Example 47, N-Phenyl-3-(4-pyridinyl)imidazo[1,2-b]pyridazin-6-amine] | 350 nM
3 | c1cc(Nc2ccc3ncc(-c4ccncc4)n3n2)ccn1 [Example 106, N,3-Di-4-pyridinylimidazo[1,2-b]pyridazin-6-amine] | 410 nM
4 | O[C@H]1CC[C@H](Nc2ccc3ncc(-c4ccnc(F)c4)n3n2)CC1 [Example 153, trans-4-{[3-(2-Fluoro-4-pyridinyl)imidazo[1,2-b]pyridazin-6-yl]amino}cyclohexanol] | 97 nM
5 | c1cc(-c2cnc3ccc(NC45CC6CC(CC(C6)C4)C5)nn23)ccn1 [Example 249, N-1-Adamantyl-3-(4-pyridinyl)imidazo[1,2-b]pyridazin-6-amine] | 320 nM

The remaining molecules from weak to strong by IC50, led by results:

Row | IC50 | Compound
6 | 380 nM | c1cc(-c2cnc3ccc(NC4CCCCC4)nn23)ccn1 [Example 44, N-Cyclohexyl-3-(4-pyridinyl)imidazo[1,2-b]pyridazin-6-amine]
7 | 310 nM | c1ccc(CNc2ccc3ncc(-c4ccncc4)n3n2)cc1 [Example 102, N-Benzyl-3-(4-pyridinyl)imidazo[1,2-b]pyridazin-6-amine]
8 | 81 nM | Oc1c(Cl)cc(-c2cnc3ccc(N[C@H]4CC[C@H](O)CC4)nn23)cc1Cl [Example 127, 2,6-dichloro-4-{6-[(trans-4-hydroxycyclohexyl)amino]imidazo[1,2-b]pyridazin-3-yl}phenol]
